Data from patent US8889689B2, “Bifunctional metnase/intnase inhibitors and related compositions and methods of treatment of cancer” (STC.UNM, priority 2010, dated 2014).
“Also recorded” adds a separate entry of the source.

How the values were obtained:
[1] = test system: NCI-H929 myeloma cells; experiment: Cytotoxicity / proliferation at varying concentrations vs vehicle control; assay type: cell-based
Method: (§1) In separate experiments, the bifunctional Metnase inhibitor, 4h-new3 (see FIGS. 4 and 43) and the monofunctional Metnase inhibitor 4h (FIG. 1 and FIG. 43), were tested at varying concentrations to determine cytotoxic activity in Raji leukemia eels and MCI-H929 myeloma cells. The compounds were tested against vehicle control at varying concentrations in the above-described cancer cell lines.

[2] = test system: Raji leukemia cells; experiment: as above; assay type: cell-based
Method: as §1

[3] = test system: KG-1 leukemia cells; experiment: KG-1 cell survival and proliferation (trypan blue counts), alone or with VP-16; assay type: cell-based, human; details: KG-1 cells
From the text: KG-1 cells are a human acute myeloid leukemia cell line established from a patient with acute myelogenous leukemia that had evolved from an erythroleukemia. Cytotoxicity of etoposide, a semisynthetic derivative of podophyllotoxin that also is called Vepesid (Bristol; code designation VP-16-213, abbreviated VP-16), is mediated by its interaction with DNA topoisomerase II (Topo II), an ATP-dependent nuclear enzyme that regulates DNA topology by transiently breaking and rejoining double-stranded DNA to allow DNA strand passage. Under normal conditions, the formation of a DNA strand break by Topo II is followed by precise realignment and resealing of the broken ends.
The human myeloid cell line KG-1 was grown in RPMI1640 with 10% FBS. The small cell lung cancer cell line CRL5898 was grown in HITES medium (Dulbecco's medium:Ham's F12, 50:50 mix, Insulin 0.005 mg/ml Transferrin 0.01 mg/ml Sodium selenite 30 nM Hydrocortisone 10 nM beta-estradiol 10 nM HEPES 10 mM L-glutamine 2 mM (in addition to that in the base medium)). Both cell lines were seeded at 10,000 cells/ml in the appropriate medium in 6 well plates. The Chem Div compounds were resuspended as 5 mM stock solutions in DMSO. […] Cells were plated and treated in triplicate and counted daily for 4 days in trypan blue to assess survival and proliferation.

[4] = test system: A549 lung cancer cells; experiment: Colony formation assay, alone or in combination with cisplatin
[5] = A549, compound constantly present, cisplatin present for a shorter period
[6] = A549, compound present for 24 hours at the beginning then removed

## CC(C)n1cc(C(=O)O)c(=O)c2ccc(C(=O)c3ccc(CN(CCCl)CCCl)cc3)cc21 [4H_new3]
[1]
  level at which proliferation is decreased: below 1 μM
[1]; varying concentrations
  decrease of cancer cell proliferation compared with monofunctional inhibitor 4h: significantly more effective at decreasing cancer cell proliferation
[2]
  level at which proliferation is decreased: below 1 μM
[2]; varying concentrations
  decrease of cancer cell proliferation compared with monofunctional inhibitor 4h: significantly more effective at decreasing cancer cell proliferation

## CC(C)n1cc(C(=O)O)c(=O)c2ccccc21 [5483-0023]
[3]; compound alone
  cytotoxic activity / proliferation, compound on its own: has cytotoxic activity on its own; also recorded: Decreases Proliferation of KG-1 Cells on its Own
[3]; in combination with VP-16
  potentiation of cytotoxic activity of VP-16: increases the cytotoxic activity of the anti-cancer drug VP-16; also recorded: Potentiates VP-16

## Cn1c(CCCC(=O)N2CCN(c3cc4c(cc3F)c(=O)c(C(=O)O)cn4C3CC3)CC2)nc2cc(N(CCCl)CCCl)ccc21 [WW-01]
[4]; [5]
  cytotoxicity of compound compared with cisplatin: significantly greater activity than cisplatin
  effect against colony survival, in combination with cisplatin: especially active in combination with cisplatin at higher concentrations

## O=C(O)c1cn(C2CC2)c2cc(N3CCN(C(=O)CCCc4ccc(N(CCCl)CCCl)cc4)CC3)c(F)cc2c1=O [WW-10]
[4]; A549, compound present 24 hours, cisplatin at higher concentration, shorter period
  cytotoxicity of compound compared with cisplatin: greater colony forming cell cytotoxicity than did cisplatin present at a higher concentration
[4]; [6]
  effect against colony survival, compound alone: significant dose dependent effect against colony survival
  effect against colony survival, in combination with cisplatin: especially active in combination with cisplatin at higher concentrations; also recorded: significant dose dependent effect against colony survival
